According to patent US20070037179A1, “Methods of diagnosing and prognosticating solid tumors and melanoma” (priority 2004, published 2007):

Tests used:
A3 adenosine receptors [1] = target: T1, A3 adenosine receptors (Homo sapiens, UniProt P0DMS8); experiment: [3H]MRE 3008F20 saturation binding to colonic membranes; parameters: Colon cancer tissues and related mucosa were homogenized in PBS buffer with a Polytron (Kinematica) and centrifuged; from tissue; host or cells: surgical specimens of human colorectal carcinoma, adenoma and adjacent/remote normal colonic mucosa
T1 sequence (P0DMS8 1-318): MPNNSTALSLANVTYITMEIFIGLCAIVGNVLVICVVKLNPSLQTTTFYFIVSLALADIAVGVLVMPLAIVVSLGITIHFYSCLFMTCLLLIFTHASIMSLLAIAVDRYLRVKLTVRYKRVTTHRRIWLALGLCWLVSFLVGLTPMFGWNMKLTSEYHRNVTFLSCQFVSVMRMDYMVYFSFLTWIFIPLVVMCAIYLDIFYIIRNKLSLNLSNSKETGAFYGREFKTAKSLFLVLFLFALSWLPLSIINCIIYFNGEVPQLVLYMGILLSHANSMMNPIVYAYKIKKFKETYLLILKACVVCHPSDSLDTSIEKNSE
Description: PREPARATION OF COLONIC MEMBRANE SUSPENSIONS. Colon cancer tissues and related mucosa were homogenized in PBS buffer with a Polytron (Kinematica) and centrifuged for 15 min at 48,000 g. The membrane pellet was resuspended in 50 mM Tris/HCl buffer pH 7.4 (50 mM Tris/HCl, 10 mM MgCl2, 1 mM EDTA) and incubated with 3 IU/ml of adenosine deaminase for 30 min at 37° C. This suspension was used for binding experiments.
(§1) Non-specific binding was determined in the presence of 1 μM MRE 3008F20. Bound and free radioactivity were separated, after an incubation time of 120 min at 4° C., by filtering the assay mixture using a Brandel cell harvester. The protein concentration was determined according to a Bio Rad method (26). Binding to A1 and A2A adenosine receptors was performed using [^3H]1,3-dipropyl-8-cyclopentyl-xanthine ([^3H]DPCPX) and [^3H]4-(2-[7-amino-2-(2-furyl)-[1,2,4]triazolo-[2,32][1,3,6]triazinyl-amino]ethyl)-phenol ([^3H]ZM 241385), respectively, as previously described (16, 24).
(§2) Data and statistical analysis. A weighted nonlinear least squares curve fitting program, LIGAND was used for computer analysis of the data from saturation experiments (28). Significant differences between control and patients with colorectal cancer were assessed using Student's t-test or analysis of variance (ANOVA) and the Dunnett's test when required. P<0.05 was considered significant. All data are reported as means±SEM.

A3 adenosine receptors [2] = target: T1, A3 adenosine receptors; experiment: [3H]MRE 3008F20 saturation binding to membranes of peripheral blood lymphocytes and neutrophils; parameters: endogenous in cells; host or cells: neutrophils and lymphocytes from peripheral venous blood of colorectal cancer patients and healthy volunteers; conditions: N=3
Description: as §1, §2

- Bmax (A3 adenosine receptors [1]; adjacent normal (AN) mucosa, 2 cm from tumor): 295±20 fmol/mg of protein
- Bmax (A3 adenosine receptors [1]; colonic membranes from 14 patients operated for non-neoplastic large bowel disease): 163±10 fmol/mg of protein
- Bmax (A3 adenosine receptors [1]; large adenomas with high-grade dysplasia, N=4): 302±15 fmol/mg of protein
- Bmax (A3 adenosine receptors [1]; remote normal (RN) mucosa, 10 cm from tumor): 196±10 fmol/mg of protein
- Bmax (A3 adenosine receptors [1]; small adenomas with low-grade dysplasia, N=4): 155±24 fmol/mg of protein
- Bmax (A3 adenosine receptors [1]; tumor tissues, 73 primary colorectal carcinomas, mean±SEM): 584±35 fmol/mg of protein
- Bmax (A3 adenosine receptors [2]; lymphocytes of patients with small adenomas): 106±15 fmol/mg of protein
- Bmax (A3 adenosine receptors [2]; neutrophils of patients with small adenomas): 547±77 fmol/mg of protein
SMILES: CCCn1cc2c(nc(NC(=O)Nc3ccc(OC)cc3)n3nc(-c4ccco4)nc23)n1 [[^3H]MRE 3008F20, 5-N-(4-methoxyphenyl-carbamoyl)amino-8-propyl-2(2furyl)-pyrazolo-[4,3 e]-1,2,4-triazolo [1,5-c]pyrimidine]
